Measured values from publication PMC5733478, “A Non-imaging High Throughput Approach to Chemical Library Screening at the Unmodified Adenosine-A3 Receptor in Living Cells” (Frontiers in Pharmacology, 2017).
Where a name gives a salt, the structure may show the parent alone. Read-outs that look alike come from different tables or passages of the source.

Molecular target: T1, human A3AR (Homo sapiens, UniProt P0DMS8)
T1 construct: expressed in transfected cells
T1 sequence (P0DMS8 1-318): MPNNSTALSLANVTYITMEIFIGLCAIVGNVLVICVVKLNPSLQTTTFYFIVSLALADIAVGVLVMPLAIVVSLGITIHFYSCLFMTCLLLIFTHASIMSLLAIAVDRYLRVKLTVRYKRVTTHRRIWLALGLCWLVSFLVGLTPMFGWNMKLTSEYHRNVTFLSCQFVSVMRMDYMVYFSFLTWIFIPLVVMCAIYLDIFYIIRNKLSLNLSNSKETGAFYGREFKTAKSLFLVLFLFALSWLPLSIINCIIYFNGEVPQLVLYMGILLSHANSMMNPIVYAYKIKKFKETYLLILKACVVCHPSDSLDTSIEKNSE
Assay: LOPAC library primary screen: single concentration (10 μM) inhibition of 25 nM CA200645 binding, PHERAstar FS

[1] = % of control wells (1% DMSO and 25 nM CA200645), compounds at 10 µM, whole live cells expressing the A3AR, mean ± SD, three experiments in duplicate

Structure (SMILES) | % 25 nM CA200645 binding | further results
CC(C)c1c(C(=O)Nc2ccccc2)c(-c2ccccc2)c(-c2ccc(F)cc2)n1CC[C@@H](O)C[C@@H](O)CC(=O)O [Atorvastatin calcium salt trihydrate] | 97.7 ± 2.2% | –
CN[C@H](CC(=O)O)C(=O)O [N-Methyl-D-aspartic acid] | 109.5 ± 4.3% | –
O=C(Nc1ccccc1)c1cc([N+](=O)[O-])ccc1Cl [GW9662] | 114.5 ± 11.5% | –
CCCCCCCCCCCCCC(=O)O[C@@H]1[C@@H](C)[C@@]2(O)[C@@H](C=C(CO)C[C@]3(O)C(=O)C(C)=C[C@@H]23)[C@@H]2C(C)(C)[C@]12OC(C)=O [Phorbol 12-myristate 13-acetate] | 80.3 ± 5.6% | –
CN(C)C(=O)Oc1ccc[n+](C)c1 [Pyridostigmine bromide] | 92.0 ± 6.7% | –
NS(=O)(=O)C#Cc1ccccc1 [Pifithrin-mu] | 92.3 ± 34.4% | –
CC(C)COCC(CN(Cc1ccccc1)c1ccccc1)N1CCCC1 (centres unmarked) [Bepridil hydrochloride] | 101.8 ± 6.3% | –
CC(C)[N+]1(C)[C@@H]2CC[C@H]1C[C@@H](OC(=O)C(CO)c1ccccc1)C2 (some centres unmarked) [Ipratropium bromide] | 106.7 ± 26.2% | –
COCCCC/C(=N\OCCN)c1ccc(C(F)(F)F)cc1 [Fluvoxamine maleate] | 100.9 ± 16.7% | –
CCCCN(CC)c1nc(C)nc2c1c(C)cn2-c1c(C)cc(C)cc1C.Cl [CP-154526 hydrochloride] | 77.3 ± 23.1% | –
CCCCNc1c(C(=O)OCC)c(C)nc2c1cnn2CC [Tracazolate] | – | % 25 nM CA200645 binding [1]: 98.9 ± 4.3%
COc1ccc(-c2cc3nccn3c(Nc3ncccc3C(N)=O)n2)cc1OC.Cl.O [BAY 61-3606 hydrochloride hydrate] | 83.8 ± 10.8% | –
C=C1C[C@@]23CC[C@H]4[C@@](C)(CCC[C@@]4(C)C(=O)O)[C@@H]2CC[C@]1(O)C3 [Steviol] | 95.9 ± 19.9% | –
NS(=O)(=O)c1ccc(-n2nc(C(F)(F)F)cc2-c2ccc(Cl)cc2)cc1 [SC-236] | 90.8 ± 15.2% | –
COc1ccccc1OCCNCC(O)COc1cccc2[nH]c3ccccc3c12 (centres unmarked) [Carvedilol] | 100.8 ± 14.2% | –
CN1CCC[C@@H]1Cc1c[nH]c2ccc(CCS(=O)(=O)c3ccccc3)cc12 [Eletriptan hydrobromide] | 96.9 ± 5.3% | –
COc1ccc(CCCOC(Cn2ccnc2)c2ccc(OC)cc2)cc1 (centres unmarked) [SKF 96365] | – | % 25 nM CA200645 binding [1]: 100.0 ± 16.7%
C[C@H]1O[C@@H](n2cc(F)c(=O)[nH]c2=O)[C@H](O)[C@@H]1O [5-fluoro-5'-deoxyuridine] | 95.4 ± 4.3% | –
O=C(CCNNC(=O)c1ccncc1)NCc1ccccc1 [Nialamide] | 96.8 ± 7.4% | –
N[C@@H](Cn1oc(=O)[nH]c1=O)C(=O)O [(+)-Quisqualic acid] | 106.4 ± 10.3% | –
Br.Oc1cc2c(c(Cl)c1O)CCNCC2c1ccccc1 (racemic) [(±)-6-Chloro-PB hydrobromide] | 99.3 ± 4.1% | –
Cc1cc2c(cc1Cl)N(C(=O)Nc1ccc(Oc3cccnc3C)nc1)CC2.Cl.Cl.O [SB 242084 dihydrochloride hydrate] | 49.6± 12.4% | –
Cl.N=C(N)c1ccc(CS(=O)(=O)F)cc1 | 98.9 ± 8.1% | –

Structure (SMILES) | % 25 nM CA200645 binding | further results
CCc1cccc2c3c([nH]c12)C(CC)(CC(=O)O)OCC3 (centres unmarked) [Etodolac] | 97.1 ± 13.7% | –
CCCCCN(C)CCC(O)(P(=O)([O-])O)P(=O)(O)O.[Na+] [Ibandronate sodium] | 95.5 ± 10.4% | –
C[C@H](O)C(=O)C1=Nc2c(nc(N)[nH]c2=O)NC1 [Sepiapterin] | 97.4 ± 20.7% | –
Cl.Nc1cc(Cl)c(N=C2NCCN2)c(Cl)c1 [p-Aminoclonidine hydrochloride] | 89.0 ± 23.3% | –
C[C@]12CC[C@@H]3c4ccc(O)cc4C[C@@H](CCCCCCCCC[S+]([O-])CCCC(F)(F)C(F)(F)F)[C@H]3[C@@H]1CC[C@@H]2O (some centres unmarked) [Fulvestrant] | 100.4 ± 12.1% | –
C1COC(NC(C2CC2)C2CC2)=N1 [Rilmenidine hemifumarate] | 100.9 ± 6.4% | –
CN(C)CCC=C1c2ccccc2C=Cc2ccccc21 [Cyclobenzaprine hydrochloride] | 85.3 ± 24.5% | –
Clc1ccc2nsnc2c1NC1=NCCN1 [Tizanidine hydrochloride] | 107.2 ± 6.1% | –
CC(N/C(=N\C#N)Nc1ccncc1)C(C)(C)C (centres unmarked) [Pinacidil] | 105.1 ± 8.3% | –
Cl.NCC(O)C1CCCCCCC1 (centres unmarked) | 94.5 ± 6.6% | –
Cc1nc(N=Nc2ccc(S(=O)(=O)O)cc2S(=O)(=O)O)c(COP(=O)(O)O)c(C=O)c1O [PPADS] | 106.1 ± 11.3% | –
N[C@H](C(=O)O)c1cc(O)no1 (racemic) [(±)-Ibotenic acid] | 93.1 ± 9.6% | –
COc1cc2ncnc(Nc3cccc(Cl)c3)c2cc1OC [Tyrphostin AG 1478] | 90.3 ± 8.9% | –
Fc1cccc(/C=N/N=C/c2cccc(F)c2)c1 [DFB] | 94.8 ± 1.4% | –
COC(=O)[C@@H]1[C@H]2C[C@H]3c4[nH]c5ccccc5c4CCN3C[C@@H]2CC[C@@H]1O [Yohimbine hydrochloride] | 100.6 ± 0.5% | –
Cl.NCCS [Cysteamine hydrochloride] | 89.3 ± 6.0% | –
CCn1cnc2c(Nc3cccc(Cl)c3)nc(N[C@@H]3CCCC[C@@H]3N)nc21.Cl [CGP-74514A hydrochloride] | 94.1 ± 9.9% | –
NC(CP(=O)(O)O)C(=O)O (racemic) [(±)-2-Amino-3-phosphonopropionic acid] | 96.0 ± 3.9% | –
Brc1c(Br)c(Br)c2[nH]cnc2c1Br [TBBz] | 74.5 ± 15.0% | –
C#CC(N)CCC(=O)O (centres unmarked) [gamma-Acetylinic GABA] | 97.6 ± 3.0% | –
NC(=O)c1ncn([C@@H]2O[C@H](CO)[C@@H](O)[C@H]2O)n1 [Ribavirin] | 103.3 ± 14.0% | –
CCN(CC)CCOC(=O)c1cc(Cl)c(N)cc1OC.Cl [SDZ-205,557 hydrochloride] | 87.0 ± 9.3% | –
NC(CCP(=O)(O)O)C(=O)O (racemic) [(±)-2-Amino-4-phosphonobutyric acid] | 99.9 ± 8.9% | –

Structure (SMILES) | % 25 nM CA200645 binding | further results
Cl.NCC(O)c1ccc(O)cc1 (racemic) [(±)-Octopamine hydrochloride] | 103.0 ± 1.6% | –
O=C(O)C1=CC(=C(c2ccc(O)c(C(=O)O)c2)c2ccc(O)c(C(=O)O)c2)C=CC1=O [Aurintricarboxylic acid] | 93.7 ± 12.0% | –
CC1=C(/C=C/C(C)=C/C=C/C(C)=C/C=C/C=C(C)/C=C/C=C(C)/C=C/C2=C(C)C(=O)[C@@H](O)CC2(C)C)C(C)(C)C[C@H](O)C1=O [Astaxanthin] | 96.8 ± 4.6% | –
N[C@@H](COP(=O)(O)O)C(=O)O [O-Phospho-L-serine] | 93.4 ± 14.4% | –
Br.CCCN(CCC)[C@@H]1CCc2cccc(O)c2C1 [R-(+)-8-Hydroxy-DPAT hydrobromide] | 83.0 ± 17.5% | –
N#Cc1cc2nc([O-])c([O-])nc2cc1[N+](=O)[O-].[Na+].[Na+] [CNQX disodium] | 94.7 ± 15.8% | –
O=C(Nc1cccc(C(=O)Nc2ccc(S(=O)(=O)O)c3cc(S(=O)(=O)O)cc(S(=O)(=O)O)c23)c1)Nc1cccc(C(=O)Nc2ccc(S(=O)(=O)O)c3cc(S(=O)(=O)O)cc(S(=O)(=O)O)c23)c1 [NF 023] | 83.8 ± 25.8% | –
C[C@H](O)[C@H](O)[C@H]1CNc2nc(N)[nH]c(=O)c2N1.Cl | 101.6 ± 17.7% | –
N=C(N)c1ccccc1 [Benzamidine hydrochloride] | 90.8 ± 8.3% | –
COc1ccc2[nH]cc(CCN)c2c1.Cl [O-Methylserotonin hydrochloride] | 107.2 ± 4.7% | –
CCCCc1ncc(/C=C(\Cc2cccs2)C(=O)O)n1Cc1ccc(C(=O)O)cc1 [Eprosartan mesylate] | 97.5 ± 15.0% | –
Cl.O=C(O)C1CCCN(CCC=C(c2ccccc2)c2ccccc2)C1 (centres unmarked) [SKF 89976A hydrochloride] | – | % 25 nM CA200645 binding (compounds tested at 10 µM, % of control wells (1% DMSO and 25 nM CA200645), […], mean ± SD, three experiments in duplicate): 95.9 ± 25.1%
CSc1ccc(C(=O)c2[nH]c(=O)[nH]c2C)cc1 [Enoximone] | 102.3 ± 5.2% | –
CCN1C[C@]2(COC)[C@H](O)C[C@H](OC)[C@@]34[C@@H]5C[C@@]6(O)[C@H](OC(=O)c7ccccc7)[C@@H]5[C@@](OC(C)=O)([C@@H]([C@H](OC)[C@H]23)[C@@H]14)[C@@H](O)[C@@H]6OC [Aconitine] | 95.2 ± 4.4% | –
O=C1CCC(c2ccc(-n3ccnc3)cc2)=NN1 [Imazodan] | 97.4 ± 12.7% | –
Br.Br.N=C(N)SCCN | 91.5 ± 12.4% | –
CCN(CC)CCNC(=O)c1cc(S(C)(=O)=O)ccc1OC [Tiapride hydrochloride] | 98.9 ± 15.2% | –
C[C@@]12C(=O)OC(=O)[C@]1(C)[C@H]1CC[C@@H]2O1 [Cantharidin] | 89.3 ± 25.6% | –
Cc1cccc(C)c1NC(=O)CN1CCCC1=O [Nefiracetam] | 88.8 ± 23.8% | –
CNc1ncnc2c1ncn2[C@@H]1O[C@H](CO)[C@@H](O)[C@H]1O [N6-Methyladenosine] | 61.1 ± 11.7% | –
Br.C=CCN1CCc2cc(O)c(O)cc2C(c2ccccc2)C1 (racemic) [(±)-SKF 38393, N-allyl-, hydrobromide] | 99.7 ± 11.6% | –
CCCCc1ccc(C(=O)O)nc1 [Fusaric acid] | 66.5 ± 29.0% | –
